Key:
Histone deacetylase 6 = molecular target: T1, Histone deacetylase 6 (Homo sapiens, UniProt Q9UBN7); experiment: Enzymatic Activity Assay
T1 sequence (Q9UBN7 whole entry): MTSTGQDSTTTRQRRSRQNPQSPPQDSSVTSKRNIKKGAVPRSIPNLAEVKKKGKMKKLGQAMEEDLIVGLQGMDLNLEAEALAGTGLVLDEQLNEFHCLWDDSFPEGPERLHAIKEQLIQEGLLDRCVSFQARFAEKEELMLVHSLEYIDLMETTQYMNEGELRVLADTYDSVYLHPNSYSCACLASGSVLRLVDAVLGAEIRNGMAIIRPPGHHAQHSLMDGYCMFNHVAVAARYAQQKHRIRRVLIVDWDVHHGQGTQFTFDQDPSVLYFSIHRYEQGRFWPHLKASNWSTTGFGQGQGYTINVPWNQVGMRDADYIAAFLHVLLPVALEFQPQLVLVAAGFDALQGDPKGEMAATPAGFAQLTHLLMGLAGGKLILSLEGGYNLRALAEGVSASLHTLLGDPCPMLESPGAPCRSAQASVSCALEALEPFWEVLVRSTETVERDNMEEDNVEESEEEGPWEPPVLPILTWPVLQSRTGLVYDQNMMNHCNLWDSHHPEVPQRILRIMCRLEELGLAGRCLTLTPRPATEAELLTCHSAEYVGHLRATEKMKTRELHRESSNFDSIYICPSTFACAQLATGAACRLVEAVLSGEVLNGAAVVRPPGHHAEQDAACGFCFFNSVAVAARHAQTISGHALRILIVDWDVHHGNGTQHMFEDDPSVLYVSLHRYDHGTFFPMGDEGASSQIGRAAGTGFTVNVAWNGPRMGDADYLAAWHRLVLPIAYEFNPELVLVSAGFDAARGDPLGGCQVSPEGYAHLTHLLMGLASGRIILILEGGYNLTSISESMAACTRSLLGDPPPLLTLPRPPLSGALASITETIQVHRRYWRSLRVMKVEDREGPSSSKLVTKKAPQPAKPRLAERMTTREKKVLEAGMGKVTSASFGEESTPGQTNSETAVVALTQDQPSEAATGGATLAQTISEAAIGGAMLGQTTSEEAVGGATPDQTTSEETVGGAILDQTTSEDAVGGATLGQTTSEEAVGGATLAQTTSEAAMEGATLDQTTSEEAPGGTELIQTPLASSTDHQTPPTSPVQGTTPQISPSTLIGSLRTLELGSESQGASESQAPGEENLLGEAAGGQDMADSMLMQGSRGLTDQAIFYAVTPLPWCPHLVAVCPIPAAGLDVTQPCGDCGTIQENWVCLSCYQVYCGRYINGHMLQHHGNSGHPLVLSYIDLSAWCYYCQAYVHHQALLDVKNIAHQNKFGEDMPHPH
Procedure: (§1) After a period of preincubation (incubation times and temperatures vary for different isoforms and are shown in table 1) 25 μL of solution containing the substrate were added. […] Enzymatic activity on recombinant human HDAC6 and HDAC1 was evaluated (Table 2) for each synthesized compound.

Histone deacetylase 4 = Histone deacetylase 4 (Homo sapiens, UniProt P56524); experiment: Enzymatic Activity Assay
Histone deacetylase 4, sequence (P56524 whole entry): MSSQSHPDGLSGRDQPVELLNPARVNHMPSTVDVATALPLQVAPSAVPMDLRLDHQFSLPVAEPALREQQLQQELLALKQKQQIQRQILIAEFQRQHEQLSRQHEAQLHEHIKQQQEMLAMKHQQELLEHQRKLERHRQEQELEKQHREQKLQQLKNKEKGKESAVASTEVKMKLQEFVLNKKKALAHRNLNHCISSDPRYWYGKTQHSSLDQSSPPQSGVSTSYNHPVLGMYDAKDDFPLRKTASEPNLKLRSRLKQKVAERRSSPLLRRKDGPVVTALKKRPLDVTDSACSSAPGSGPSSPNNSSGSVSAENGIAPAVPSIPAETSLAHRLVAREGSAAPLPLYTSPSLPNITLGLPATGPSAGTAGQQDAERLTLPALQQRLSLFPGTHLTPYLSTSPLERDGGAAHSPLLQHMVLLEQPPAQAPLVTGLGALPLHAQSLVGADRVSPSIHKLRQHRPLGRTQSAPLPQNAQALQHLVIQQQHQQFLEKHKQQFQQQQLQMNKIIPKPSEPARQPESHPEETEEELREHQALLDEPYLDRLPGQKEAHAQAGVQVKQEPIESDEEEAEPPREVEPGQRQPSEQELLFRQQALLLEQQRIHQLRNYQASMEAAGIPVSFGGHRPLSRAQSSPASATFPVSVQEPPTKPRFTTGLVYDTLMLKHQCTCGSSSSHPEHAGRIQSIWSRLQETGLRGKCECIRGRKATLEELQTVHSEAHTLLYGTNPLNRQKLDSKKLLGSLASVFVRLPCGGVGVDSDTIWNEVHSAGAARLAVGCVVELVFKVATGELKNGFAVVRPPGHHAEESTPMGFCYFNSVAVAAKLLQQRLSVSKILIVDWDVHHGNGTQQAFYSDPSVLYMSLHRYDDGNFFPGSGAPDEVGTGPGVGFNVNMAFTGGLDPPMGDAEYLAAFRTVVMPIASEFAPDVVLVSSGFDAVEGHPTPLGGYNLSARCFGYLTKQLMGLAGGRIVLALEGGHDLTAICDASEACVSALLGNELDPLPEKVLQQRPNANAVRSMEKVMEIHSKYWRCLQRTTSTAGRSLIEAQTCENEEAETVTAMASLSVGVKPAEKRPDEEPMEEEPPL
Procedure: as §1

| Compound | IC50 (Histone deacetylase 6) | IC50 (Histone deacetylase 4) |
| --- | --- | --- |
| Nc1ccc(-c2cn(Cc3ccc(-c4nnc(C(F)F)o4)c(F)c3)nn2)cn1 [US20230286970, Compound 15] | 26 nM | > 30000 nM |
| Nc1nc2ccc(-c3cn(Cc4ccc(-c5nnc(C(F)F)o5)cc4)nn3)cc2s1 [US20230286970, Compound 14] | 25 nM | > 30000 nM |
